Measured values: US4935449A, “N-2,3-butadienyl tri- and tetraaminoalkane derivatives” (Merrell Dow Pharmaceuticals Inc., priority 1988, dated 1990)

How the values were obtained:
ODC and AdoMetDC = conditions: cited from earlier work
natural polyamines = conditions: exposure of cells; cited from earlier work
L1210 cells = conditions: cited from earlier work
Rat Liver Pao = Rat Liver Pao (Rattus norvegicus, UniProt A0A8I6AEP5); test: In vitro inhibition of partially purified rat liver polyamine oxidase (PAO); format: biochemical
Experimental: Polyamine Oxidase Inhibition^1
Rat liver polyamine oxidase was purified by the procedure of Holtta, E.
step. Ki and .tau.50 were determined using the partially

PAO = PAO activity ex vivo in the liver of mice dosed i.p. 24 hours before; conditions: mouse liver, Dose 1.0 mg/kg i.p., control 18.7
Text: MEASUREMENT OF PAO ACTIVITIES IN MOUSE TISSUES
Chim. Biophys. Acta 38: 69-76.

ODC = conditions: cited from earlier work
T. b. brucei = conditions: in mice; cited from earlier work
Eimeria spp. = conditions: cited from earlier work
Pneumocystis carinii = conditions: cited from earlier work
P. gallinaceum = P. gallinaceum in chickens; cited from earlier work
P. berghei = conditions: cited from earlier work
Plasmodia spp. [1] = conditions: in culture in vitro; cited from earlier work
Plasmodia spp. [2] = conditions: liver of infected mice; cited from earlier work
Plasmodia spp. [3] = conditions: cited from earlier work

Sequence of Rat Liver Pao (A0A8I6AEP5 62-564): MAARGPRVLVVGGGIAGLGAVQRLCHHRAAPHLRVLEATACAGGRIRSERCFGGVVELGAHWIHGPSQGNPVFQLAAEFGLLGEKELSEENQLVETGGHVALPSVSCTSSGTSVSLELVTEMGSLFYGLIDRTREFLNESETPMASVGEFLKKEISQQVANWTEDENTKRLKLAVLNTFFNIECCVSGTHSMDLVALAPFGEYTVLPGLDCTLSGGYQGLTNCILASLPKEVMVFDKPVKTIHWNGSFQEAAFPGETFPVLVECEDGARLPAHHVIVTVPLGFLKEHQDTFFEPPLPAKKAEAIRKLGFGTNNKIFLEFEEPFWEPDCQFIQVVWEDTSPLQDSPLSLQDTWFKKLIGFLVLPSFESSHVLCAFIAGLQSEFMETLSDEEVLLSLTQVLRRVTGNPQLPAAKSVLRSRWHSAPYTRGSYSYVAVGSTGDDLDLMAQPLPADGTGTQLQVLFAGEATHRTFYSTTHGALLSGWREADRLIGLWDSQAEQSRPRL

| SMILES | repression of ODC and AdoMetDC (ODC and AdoMetDC) | depletion of the natural polyamines (natural polyamines) | support of growth of L1210 cells (L1210 cells) | .tau.50 (Rat Liver Pao) [min] | PAO Activity (PAO) [p/mol/min/mg protein] | other results |
| --- | --- | --- | --- | --- | --- | --- |
| CCNCCCNCCCCNCCCNCC [N^1,N^12 -bis(ethyl)spermine] | mimic the action of their parent polyamines in the repression of ODC and AdoMetDC | leads to the depletion of the natural polyamines | will not support growth of L1210 cells | – | – | – |
| C=C=CCNCCCNCCCCCCCCNCCCNCC=C=C [Compound 51] | – | – | – | 2.0 | 4.1 | – |
| CCNCCCCNCCCNCC [N^1,N^8 -bis(ethyl)spermidine] | mimic the action of their parent polyamines in the repression of ODC and AdoMetDC | leads to the depletion of the natural polyamines | will not support growth of L1210 cells | – | – | – |
| C=C=CCNCCCNCCCNCC=C=C [Compound 46] | – | – | – | 4.0 | 1.0 | – |
| NCCC[C@](N)(C(=O)O)C(F)F [DFMO, α-difluoromethylornithine] | – | – | – | – | – | inhibition of ODC (ODC): inhibits ODC; cure of acute infections of T. b. brucei (T. b. brucei): totally cure acute infections; sensitivity of Eimeria spp. (Eimeria spp.): sensitive; sensitivity of Pneumocystis carinii (Pneumocystis carinii): sensitive; curative effect on erythrocytic forms of malaria in vivo (P. gallinaceum): no curative effects; curative effect on erythrocytic forms of malaria in vivo (P. berghei; P. berghei in mice): no curative effects; parasitemia in P. berghei infections (P. berghei; P. berghei infections): significantly reduce parasitemia; erythrocytic replication (schizogony) (Plasmodia spp. [1]): block erythrocytic replication (schizogony) in culture in vitro; exoerythrocytic schizogony in the liver (Plasmodia spp. [2]): inhibit the cycle in the liver of infected mice; sporogonous cycle in the mosquito vector (Plasmodia spp. [3]): completely inhibit the sporogonous cycle in the mosquito vector |
